Experimental data as given in the supplement of paper PMC5412046.
Structures can show the parent of a compound that is named as a salt.

Assays:
SB.mhdgc-1 [1] = test: area under the dose-response curve of % viability (trapezoidal, 11 doses) (% viability x log10 concentration); higher = less cytotoxic; conditions: SB.mhdgc-1 (hereditary c.1380delA CDH1 gastric cancer)
In short: (§1)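 Using a pintool, 23 nL of compound in DMSO was transferred at 11 threefold-diluted concentrations onto patient-derived gastric cancer cells, hereditary or sporadic, plated at 500 cells in 5 μL medium per 1536 well. CellTiter-Glo luminescence was read after 48 h. Each value is viability normalised to DMSO, either at the highest concentration or as trapezoidal area under the curve.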

SB.msgc-1 [2] = test: as above; conditions: SB.msgc-1 (sporadic gastric cancer)
In short: as §1

SB.mhdgc-1 [3] = test: viability at highest tested concentration (MAXR) relative to DMSO; higher = less cytotoxic; conditions: SB.mhdgc-1 (hereditary c.1380delA CDH1 gastric cancer)
In short: as §1

SB.msgc-1 [4] = test: as above; conditions: SB.msgc-1 (sporadic gastric cancer)
In short: as §1

Q: How did the “area under the dose-response curve” value (SB.mhdgc-1 [1]) turn out when C[C@]12CC[C@H]3[C@@H](CCC/4=C/C(=O)CC[C@]34C)[C@@H]1CC[C@@H]2OC(=O)CCC5CCCC5 [Testosterone cypionate] (top concentration 46.0829 µM) was run?
A: 513

Q: And the “area under the dose-response curve” value (SB.msgc-1 [2])?
A: 448

Q: And the viability (SB.mhdgc-1 [3])?
A: 63.1%

Q: What about the viability (SB.msgc-1 [4]) of the same compound?
A: 60.5%

Q: With Cc1ccc(C(=O)Nc2ccc([S+](=O)([O-])O)c3cc([S+](=O)([O-])O)cc([S+](=O)([O-])O)c23)cc1NC(=O)c1cccc(NC(=O)Nc2cccc(C(=O)Nc3cc(C(=O)Nc4ccc([S+](=O)([O-])O)c5cc([S+](=O)([O-])O)cc([S+](=O)([O-])O)c45)ccc3C)c2)c1 [Suramin sodium] (top concentration 46.0829 µM) as the compound, how does the “area under the dose-response curve” value (SB.mhdgc-1 [1]) read?
A: 480

Q: What about the “area under the dose-response curve” value (SB.msgc-1 [2]) of the same compound?
A: 474

Q: And the viability (SB.mhdgc-1 [3])?
A: 89.1%

Q: And the viability (SB.msgc-1 [4])?
A: 70%

Q: Which results are given for O=C(O)c1ccccc1C(=O)Nc1ccc(-c2ccccc2)cc1 [Kartogenin] (top concentration 46.0829 µM)?
A: area under the dose-response curve (SB.mhdgc-1 [1]): 567; area under the dose-response curve (SB.msgc-1 [2]): 589; viability (SB.mhdgc-1 [3]): 114%; viability (SB.msgc-1 [4]): 115%

Q: How did the “area under the dose-response curve” value (SB.mhdgc-1 [1]) turn out when C=CCn1c(=O)c2cnc(Nc3ccc(N4CCN(C)CC4)cc3)nc2n1-c1cccc(C(C)(C)O)n1 [MK-1775] (top concentration 46.0829 µM) was run?
A: 384

Q: And the “area under the dose-response curve” value (SB.msgc-1 [2])?
A: 384

Q: What about the viability (SB.mhdgc-1 [3]) of the same compound?
A: 36.2%

Q: And the viability (SB.msgc-1 [4])?
A: 41.1%

Q: Clc1cc(Cl)cc(CNc2ncncc2-c2ccc3c(c2)OCO3)c1 (top concentration 46.0829 µM) was tested. Which “area under the dose-response curve” value (SB.mhdgc-1 [1]) did it give?
A: 433

Q: What about the “area under the dose-response curve” value (SB.msgc-1 [2]) of the same compound?
A: 485

Q: What about the viability (SB.mhdgc-1 [3]) of the same compound?
A: 59.8%

Q: And the viability (SB.msgc-1 [4])?
A: 43%

Q: What does the source list for CO[C@H]1C[C@@H]2CC[C@@H](C)[C@@](O)(O2)C(=O)C(=O)N2CCCC[C@H]2C(=O)O[C@H]([C@H](C)C[C@@H]2CC[C@@H](OC(=O)C(C)(CO)CO)[C@H](OC)C2)CC(=O)[C@H](C)/C=C(\C)[C@@H](O)[C@@H](OC)C(=O)[C@H](C)C[C@H](C)/C=C/C=C/C=C/1C [Temsirolimus] (top concentration 46.0829 µM)?
A: area under the dose-response curve (SB.mhdgc-1 [1]): 346; area under the dose-response curve (SB.msgc-1 [2]): 475; viability (SB.mhdgc-1 [3]): 12.6%; viability (SB.msgc-1 [4]): 57%

Q: Which results are given for COc1cc2cc(c1Cl)N(C)C(=O)C[C@H](OC(=O)C(C)C)[C@]1(C)O[C@@H]1[C@H](C)[C@@H]1C[C@@](O)(NC(=O)O1)[C@H](OC)/C=C/C=C(\C)C2 [Ansamitocin P3] (top concentration 46.0829 µM)?
A: area under the dose-response curve (SB.mhdgc-1 [1]): 223; area under the dose-response curve (SB.msgc-1 [2]): 207; viability (SB.mhdgc-1 [3]): 40.3%; viability (SB.msgc-1 [4]): 40.8%

Q: How did the “area under the dose-response curve” value (SB.mhdgc-1 [1]) turn out when C[C@]\12CCC(=O)\C=C1[C@@H]3C[C@@H]3[C@@H]4[C@@H]2CC[C@@]5(C)[C@H]4[C@@H]6C[C@@H]6[C@@]57CCC(=O)O7 [Drospirenone] (top concentration 46.0829 µM) was run?
A: 524

Q: And the “area under the dose-response curve” value (SB.msgc-1 [2])?
A: 550

Q: What about the viability (SB.mhdgc-1 [3]) of the same compound?
A: 120%

Q: What about the viability (SB.msgc-1 [4]) of the same compound?
A: 80.6%

Q: Which “area under the dose-response curve” value (SB.mhdgc-1 [1]) does the source give for CCC[C@@H](C=O)NC(=O)[C@H](CC(C)C)NC(=O)[C@H](CC(C)C)NC(=O)OCc1ccccc1 [MG-115] (top concentration 46.0829 µM) here?
A: 350

Q: And the “area under the dose-response curve” value (SB.msgc-1 [2])?
A: 361

Q: What about the viability (SB.mhdgc-1 [3]) of the same compound?
A: 4.83%

Q: And the viability (SB.msgc-1 [4])?
A: 4.73%

Q: With CC(=O)Nc1ccc(O)cc1 [Acetaminophen] (top concentration 46.0829 µM) as the compound, how does the “area under the dose-response curve” value (SB.mhdgc-1 [1]) read?
A: 492

Q: And the “area under the dose-response curve” value (SB.msgc-1 [2])?
A: 578

Q: What about the viability (SB.mhdgc-1 [3]) of the same compound?
A: 98.4%

Q: What about the viability (SB.msgc-1 [4]) of the same compound?
A: 105%

Q: COc1ccc(C2Sc3ccccc3N(CCN(C)C)C(=O)C2OC(C)=O)cc1 (stereo not drawn) [Diltiazem hydrochloride] (top concentration 46.0829 µM) was tested. Which “area under the dose-response curve” value (SB.mhdgc-1 [1]) did it give?
A: 588

Q: What about the “area under the dose-response curve” value (SB.msgc-1 [2]) of the same compound?
A: 583

Q: What about the viability (SB.mhdgc-1 [3]) of the same compound?
A: 96%

Q: What about the viability (SB.msgc-1 [4]) of the same compound?
A: 115%

Q: Which “area under the dose-response curve” value (SB.mhdgc-1 [1]) does the source give for CNC(=O)c1ccc(Nc2cc(Nc3ccccc3[S+](=O)([O-])C(C)C)c3cc[nH]c3n2)nc1 (top concentration 46.0829 µM) here?
A: 517

Q: And the “area under the dose-response curve” value (SB.msgc-1 [2])?
A: 480

Q: What about the viability (SB.mhdgc-1 [3]) of the same compound?
A: 14.3%

Q: What about the viability (SB.msgc-1 [4]) of the same compound?
A: 15.6%

Q: Which “area under the dose-response curve” value (SB.mhdgc-1 [1]) does the source give for Cc1ccc(CN2CCNCC2)cc1NC(=O)CNc1ccc(F)c(F)c1 (top concentration 46.0829 µM) here?
A: 407

Q: And the “area under the dose-response curve” value (SB.msgc-1 [2])?
A: 488

Q: And the viability (SB.mhdgc-1 [3])?
A: 48.3%

Q: And the viability (SB.msgc-1 [4])?
A: 32.8%

Q: O=C(N[C@H]1CN2CCC1CC2)c1ccc(Cl)cc1 (top concentration 46.0829 µM) was tested. Which “area under the dose-response curve” value (SB.mhdgc-1 [1]) did it give?
A: 511

Q: What about the “area under the dose-response curve” value (SB.msgc-1 [2]) of the same compound?
A: 555

Q: What about the viability (SB.mhdgc-1 [3]) of the same compound?
A: 45.8%

Q: And the viability (SB.msgc-1 [4])?
A: 8.07%

Q: With COc1ccccc1[C@H](c1cccc2ccccc12)[C@@](C)(C#N)C(=O)N1CCC(c2cccc(C(F)(F)F)c2)CC1 (top concentration 46.0829 µM) as the compound, how does the “area under the dose-response curve” value (SB.mhdgc-1 [1]) read?
A: 445

Q: And the “area under the dose-response curve” value (SB.msgc-1 [2])?
A: 479

Q: What about the viability (SB.mhdgc-1 [3]) of the same compound?
A: 25.3%

Q: What about the viability (SB.msgc-1 [4]) of the same compound?
A: 75.2%

Q: Which “area under the dose-response curve” value (SB.mhdgc-1 [1]) does the source give for NCC/1=C/NC(=S)N1[C@H]2CCC3=C(F)C=C(F)C=C3C2 [Nepicastat hydrochloride] (top concentration 46.0829 µM) here?
A: 545

Q: What about the “area under the dose-response curve” value (SB.msgc-1 [2]) of the same compound?
A: 495

Q: What about the viability (SB.mhdgc-1 [3]) of the same compound?
A: 46.2%

Q: What about the viability (SB.msgc-1 [4]) of the same compound?
A: 8.83%

Q: O=C(N[C@@H](c1ccccc1)[C@@H]1CCCCN1)c1cccc(C(F)(F)F)c1Cl (top concentration 46.0829 µM) was tested. Which “area under the dose-response curve” value (SB.mhdgc-1 [1]) did it give?
A: 476

Q: And the “area under the dose-response curve” value (SB.msgc-1 [2])?
A: 482

Q: And the viability (SB.mhdgc-1 [3])?
A: 13%

Q: What about the viability (SB.msgc-1 [4]) of the same compound?
A: 76.3%

Q: Which results are given for Cc1ccc(Nc2cc(-c3cccc(N4C(=O)c5ccccc5C4=O)c3)ncn2)cc1N[S+](C)(=O)[O-] [CDK9 inhibitor] (top concentration 46.0829 µM)?
A: area under the dose-response curve (SB.mhdgc-1 [1]): 423; area under the dose-response curve (SB.msgc-1 [2]): 492; viability (SB.mhdgc-1 [3]): 43.4%; viability (SB.msgc-1 [4]): 31.5%

Q: Which “area under the dose-response curve” value (SB.mhdgc-1 [1]) does the source give for C#Cc1cccc(Nc2ncnc3cc(OC)c(OCCCCCCC(=O)NO)cc23)c1 [CUDC-101] (top concentration 46.0829 µM) here?
A: 281

Q: What about the “area under the dose-response curve” value (SB.msgc-1 [2]) of the same compound?
A: 224

Q: And the viability (SB.mhdgc-1 [3])?
A: 40.3%

Q: What about the viability (SB.msgc-1 [4]) of the same compound?
A: 6.59%

Q: Which results are given for CC(C)(F)C[C@H](N[C@@H](c1ccc(-c2ccc([S+](C)(=O)[O-])cc2)cc1)C(F)(F)F)C(=O)NC1(C#N)CC1 [Odanacatib] (top concentration 46.0829 µM)?
A: area under the dose-response curve (SB.mhdgc-1 [1]): 530; area under the dose-response curve (SB.msgc-1 [2]): 581; viability (SB.mhdgc-1 [3]): 42.7%; viability (SB.msgc-1 [4]): 77.9%

Q: With CC/1=C/N([C@@H]2C[C@@H](O)[C@H](CO)O2)C(=O)NC1=O [Telbivudine] (top concentration 46.0829 µM) as the compound, how does the “area under the dose-response curve” value (SB.mhdgc-1 [1]) read?
A: 357

Q: What about the “area under the dose-response curve” value (SB.msgc-1 [2]) of the same compound?
A: 483

Q: And the viability (SB.mhdgc-1 [3])?
A: 57.1%

Q: What about the viability (SB.msgc-1 [4]) of the same compound?
A: 118%

Q: For CN1CCN(CCOc2cc(OC3CCOCC3)c3c(Nc4c(Cl)ccc5c4OCO5)ncnc3c2)CC1 [Saracatinib] (top concentration 46.0829 µM), which “area under the dose-response curve” value (SB.mhdgc-1 [1]) is on record?
A: 435

Q: What about the “area under the dose-response curve” value (SB.msgc-1 [2]) of the same compound?
A: 392

Q: What about the viability (SB.mhdgc-1 [3]) of the same compound?
A: 4.27%

Q: What about the viability (SB.msgc-1 [4]) of the same compound?
A: 41.3%
